# Data reported in PubChem BioAssay AID2060905 (Molecular Pharmacology Branch, DTP, NCI, 2025).
# Test system: 282377-053-R-J1-PDC complex spheroid viability
# Assay: Anticancer human tumor 282377-053-R-J1-PDC patient-derived colon adenocarcinoma cell line growth inhibition [RAS]
# Details: for IC50: curve of first compound; for viability, T/C: stronger effect = lower value
# Summary of the method: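 Multi-cell-type spheroids: tumor cells plus HUVEC endothelial cells and mesenchymal stem cells. RAS-pathway inhibitors were combined with targeted agents, each dosed in half-log steps down from clinical Cmax, or from 10 microM when Cmax was unknown.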
# [1] = second compound 0.0316 µM, first compound 0.0316 µM
# [2] = second compound 0.0316 µM, first compound 0.1 µM
# [3] = second compound 0.0316 µM, first compound 0.316 µM
# [4] = second compound 0.0316 µM, first compound 1 µM
# [5] = second compound 0.0316 µM, first compound 3.16 µM
# [6] = second compound 0.0316 µM, first compound 10 µM
# [7] = second compound 0.1 µM, first compound 0.0316 µM
# [8] = second compound 0.1 µM, first compound 0.1 µM
# [9] = second compound 0.1 µM, first compound 0.316 µM
# [10] = second compound 0.1 µM, first compound 1 µM
# [11] = second compound 0.1 µM, first compound 3.16 µM
# [12] = second compound 0.1 µM, first compound 10 µM
# [13] = second compound 0.316 µM, first compound 0.0316 µM
# [14] = second compound 0.316 µM, first compound 0.1 µM
# [15] = second compound 0.316 µM, first compound 0.316 µM
# [16] = second compound 0.316 µM, first compound 1 µM
# [17] = second compound 0.316 µM, first compound 3.16 µM
# [18] = second compound 0.316 µM, first compound 10 µM
# [19] = second compound 1 µM, first compound 0.0316 µM
# [20] = second compound 1 µM, first compound 0.1 µM
# [21] = second compound 1 µM, first compound 0.316 µM
# [22] = second compound 1 µM, first compound 1 µM
# [23] = second compound 1 µM, first compound 3.16 µM
# [24] = second compound 1 µM, first compound 10 µM
# [25] = second compound 3.16 µM, first compound 0.0316 µM
# [26] = second compound 3.16 µM, first compound 0.1 µM
# [27] = second compound 3.16 µM, first compound 0.316 µM
# [28] = second compound 3.16 µM, first compound 1 µM
# [29] = second compound 3.16 µM, first compound 3.16 µM
# [30] = second compound 3.16 µM, first compound 10 µM
# [31] = second compound 10 µM, first compound 0.0316 µM
# [32] = second compound 10 µM, first compound 0.1 µM
# [33] = second compound 10 µM, first compound 0.316 µM
# [34] = second compound 10 µM, first compound 1 µM
# [35] = second compound 10 µM, first compound 3.16 µM
# [36] = second compound 10 µM, first compound 10 µM
# 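Note: spheroids exposed to agents for seven days before readout.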
# 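Throughout, for viability, T/C: luminescence viability as percent of DMSO vehicle control wells.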
smiles,measurement,setting,value
CCC(CC)c1cc(NC2CCC(N)C2)n2nccc2n1 (stereo unspecified) + C#Cc1c(F)ccc2cc(O)cc(-c3ncc4c(N5CC6CCC(C5)N6)nc(OCC56CCCN5CC(F)C6)nc4c3F)c12,IC50,second compound 0.0316 µM,1970 nM
same,IC50,second compound 0.1 µM,2020 nM
same,IC50,second compound 0.316 µM,1860 nM
same,IC50,second compound 1 µM,1700 nM
same,IC50,second compound 3.16 µM,1910 nM
same,IC50,second compound 10 µM,1760 nM
same,"viability, T/C",[1],113%
same,"viability, T/C",[2],120%
same,"viability, T/C",[3],89.4%
same,"viability, T/C",[4],111%
same,"viability, T/C",[5],9.2%
same,"viability, T/C",[6],2.06%
same,"viability, T/C",[7],113%
same,"viability, T/C",[8],123%
same,"viability, T/C",[9],94.9%
same,"viability, T/C",[10],118%
same,"viability, T/C",[11],10.2%
same,"viability, T/C",[12],2.09%
same,"viability, T/C",[13],107%
same,"viability, T/C",[14],102%
same,"viability, T/C",[15],81.3%
same,"viability, T/C",[16],96.9%
same,"viability, T/C",[17],9.63%
same,"viability, T/C",[18],2.11%
same,"viability, T/C",[19],103%
same,"viability, T/C",[20],95.4%
same,"viability, T/C",[21],86.8%
same,"viability, T/C",[22],84.6%
same,"viability, T/C",[23],9.29%
same,"viability, T/C",[24],2.23%
same,"viability, T/C",[25],99.5%
same,"viability, T/C",[26],112%
same,"viability, T/C",[27],104%
same,"viability, T/C",[28],100%
same,"viability, T/C",[29],10.8%
same,"viability, T/C",[30],2.69%
same,"viability, T/C",[31],101%
same,"viability, T/C",[32],95.9%
same,"viability, T/C",[33],96.3%
same,"viability, T/C",[34],89.4%
same,"viability, T/C",[35],9.18%
same,"viability, T/C",[36],3.74%
Cc1nc(N2CCC3(CC2)COC(C)C3N)c(CO)nc1Sc1ccnc(N)c1Cl (stereo unspecified) + C#Cc1c(F)ccc2cc(O)cc(-c3ncc4c(N5CC6CCC(C5)N6)nc(OCC56CCCN5CC(F)C6)nc4c3F)c12,IC50,second compound 0.0316 µM,> 10000 nM
same,IC50,second compound 0.1 µM,> 10000 nM
same,IC50,second compound 0.316 µM,> 10000 nM
same,IC50,second compound 1 µM,> 10000 nM
same,IC50,second compound 3.16 µM,> 10000 nM
same,IC50,second compound 10 µM,> 10000 nM
same,"viability, T/C",[1],101%
same,"viability, T/C",[2],120%
same,"viability, T/C",[3],114%
same,"viability, T/C",[4],113%
same,"viability, T/C",[5],95.9%
same,"viability, T/C",[6],87.3%
same,"viability, T/C",[7],109%
same,"viability, T/C",[8],107%
same,"viability, T/C",[9],88.7%
same,"viability, T/C",[10],89.8%
same,"viability, T/C",[11],99.5%
same,"viability, T/C",[12],89.4%
same,"viability, T/C",[13],107%
same,"viability, T/C",[14],114%
same,"viability, T/C",[15],95%
same,"viability, T/C",[16],100%
same,"viability, T/C",[17],114%
same,"viability, T/C",[18],101%
same,"viability, T/C",[19],116%
same,"viability, T/C",[20],110%
same,"viability, T/C",[21],110%
same,"viability, T/C",[22],86%
same,"viability, T/C",[23],98%
same,"viability, T/C",[24],85%
same,"viability, T/C",[25],99.3%
same,"viability, T/C",[26],103%
same,"viability, T/C",[27],89.8%
same,"viability, T/C",[28],111%
same,"viability, T/C",[29],98.2%
same,"viability, T/C",[30],120%
same,"viability, T/C",[31],110%
same,"viability, T/C",[32],116%
same,"viability, T/C",[33],114%
same,"viability, T/C",[34],98.5%
same,"viability, T/C",[35],85.8%
same,"viability, T/C",[36],131%
CC(C)n1nc(-c2ccc3oc(N)nc3c2)c2c(N)ncnc21 + C#Cc1c(F)ccc2cc(O)cc(-c3ncc4c(N5CC6CCC(C5)N6)nc(OCC56CCCN5CC(F)C6)nc4c3F)c12,IC50,second compound 0.0316 µM,> 100 nM
same,IC50,second compound 0.1 µM,> 100 nM
same,IC50,second compound 0.316 µM,88.1 nM
same,IC50,second compound 1 µM,> 100 nM
same,IC50,second compound 3.16 µM,78.3 nM
same,IC50,second compound 10 µM,> 100 nM
same,"viability, T/C","second compound 0.0316 µM, first compound 0.000316 µM",101%
same,"viability, T/C","second compound 0.0316 µM, first compound 0.001 µM",87.2%
same,"viability, T/C","second compound 0.0316 µM, first compound 0.00316 µM",105%
same,"viability, T/C","second compound 0.0316 µM, first compound 0.01 µM",77.5%
same,"viability, T/C",[1],72.7%
same,"viability, T/C",[2],56.9%
same,"viability, T/C","second compound 0.1 µM, first compound 0.000316 µM",115%
same,"viability, T/C","second compound 0.1 µM, first compound 0.001 µM",107%
same,"viability, T/C","second compound 0.1 µM, first compound 0.00316 µM",89%
same,"viability, T/C","second compound 0.1 µM, first compound 0.01 µM",77.7%
same,"viability, T/C",[7],66.6%
same,"viability, T/C",[8],50.2%
same,"viability, T/C","second compound 0.316 µM, first compound 0.000316 µM",99.8%
same,"viability, T/C","second compound 0.316 µM, first compound 0.001 µM",99.6%
same,"viability, T/C","second compound 0.316 µM, first compound 0.00316 µM",80.8%
same,"viability, T/C","second compound 0.316 µM, first compound 0.01 µM",71.1%
same,"viability, T/C",[13],69.4%
same,"viability, T/C",[14],45.3%
same,"viability, T/C","second compound 1 µM, first compound 0.000316 µM",104%
same,"viability, T/C","second compound 1 µM, first compound 0.001 µM",81.2%
same,"viability, T/C","second compound 1 µM, first compound 0.00316 µM",82.9%
same,"viability, T/C","second compound 1 µM, first compound 0.01 µM",66.4%
same,"viability, T/C",[19],75.9%
same,"viability, T/C",[20],46.8%
same,"viability, T/C","second compound 3.16 µM, first compound 0.000316 µM",87%
same,"viability, T/C","second compound 3.16 µM, first compound 0.001 µM",76%
same,"viability, T/C","second compound 3.16 µM, first compound 0.00316 µM",91.5%
same,"viability, T/C","second compound 3.16 µM, first compound 0.01 µM",81.1%
same,"viability, T/C",[25],76.3%
same,"viability, T/C",[26],42.8%
same,"viability, T/C","second compound 10 µM, first compound 0.000316 µM",108%
same,"viability, T/C","second compound 10 µM, first compound 0.001 µM",91.5%
same,"viability, T/C","second compound 10 µM, first compound 0.00316 µM",84.6%
same,"viability, T/C","second compound 10 µM, first compound 0.01 µM",72%
same,"viability, T/C",[31],52.7%
same,"viability, T/C",[32],60.7%
